Assay results as given in patent publication US20230086718A1, “METHOD FOR PREDICTING THE SURVIVAL TIME OF A PATIENT SUFFERING FROM A CANCER” (INSERM (INSTITUT NATIONAL DE LA SANTÉ ET DE LA RECHERCHE …, priority 2020, published 2023).

How the values were obtained:
Format in all cases: cell-based, human
Vδ1 T cells [1] = assay: Adenosine measurement by MALDI TOF spectrometry in supernatants of amplified Vδ1 T cells
Experimental: Amplified Vδ1 T cells (2.106 cells/mL) were washed in cold PBS and resuspended in PBS supplemented with 50 mM AMP (Sigma) at 4° C. for 30 min. After centrifugation, adenosine levels in supernatants were analyzed by MALDI-TOF mass spectrometry, as previously described by Bastid et al..

Vδ1 T cells [2] = assay: Flow cytometry of CD39, CD73 and PD-L1 expression in expanded Vδ1 T cells
Excerpt: Peripheral Blood Mononuclear Cells (PBMCs) were obtained by density centrifugation on Ficoll-Paque (Eurobio, Les Ulis, France) of blood samples from healthy donors and breast cancer patients. Healthy donor samples were provided by the Etablissement Français du Sang (Convention EFS-OCPM no 21PLER2018-0069) and the blood of patients was provided by the ICM (BCB-EC-1-FR-ICM-ENR-269-004-CRB). […] Vδ1 T cells were isolated from PBMCs by a positive immunoselection using the anti-human Vδ1 antibody (Beckman Coulter) and anti-IgG1 magnetic beads (Miltenyi Biotec). Briefly, 300.106 cells were incubated with 10 μg of anti-human Vδ1 antibody in 5 ml of PBS supplemented with 2% SVF and EDTA (2 mM) for 1 hour at 4° C., then washed and incubated with 200 μl of anti-IgG1 magnetic beads for 1 hour at 4° C., then washed and collected on column according to the manufacturer's instructions (Miltenyi Biotec). Reproducible high purity of Vδ1 T cells (>90%) was obtained with this protocol. Purified Vδ1 T cells (2.106 cells/ml) were stimulated with 2 μg/mL of PHA in the presence of syngeneic macrophages isolated using their adherence properties. Briefly, PBMC (2.106/ml) were incubated in RPMI 10% FCS for 1 hour at 37° C. in 96 well-plates to allow to monocytes to adhere and differentiate in macrophages. Non-adherent cells were removed by 2 washes with RPMI medium. Purified Vδ1 T cells were added to macrophages, activated by PHA and expanded in the complete medium containing RPMI 1640/Glutamax medium supplemented with 5% human AB serum and 5% fetal calf serum (FCS) in the presence of rhIL-2 (control) or rhIL-2+rhIL-21 (experimental condition) at 37° C. in humidified atmosphere with 5% CO2. Every 2 days, fresh medium is added and after 1 week Vδ1 T cells were separated from adherent macrophages and amplified in the complete medium with cytokines for 2 more weeks before phenotyping and analysis.
Cells were first incubated at 4° C. for 30 min with Fc-block solution to minimize non-specific binding of antibodies to Fc receptors, then incubated with a dye cell viability and the panel of antibodies in the staining buffer (PBS-2% FCS) at 4° C. for 30 min, cells were then washed and fixed in 1% paraformaldehyde. Data were acquired with a Cytoflex cytometer (Beckman-Coulter) and analyzed with the FlowJo software.
Peripheral Blood Mononuclear Cells (PBMCs) were obtained by density centrifugation on Ficoll-Paque (Eurobio, Les Ulis, France) of blood samples from healthy donors and breast cancer patients. Healthy donor samples were provided by the Etablissement Français du Sang and the blood of patients was provided by the Institut regional du Cancer de Montpellier (ICM). […] Vδ1 T cells were isolated from PBMCs by a positive immunoselection using the anti-human Vδ1 antibody (Beckman Coulter) and anti-IgG1 magnetic beads (Miltenyi Biotec). Briefly, 300.106 cells were incubated with 10 μg of anti-human Vδ1 antibody in 5 ml of PBS supplemented with 2% SVF and EDTA (2 mM) for 1 hour at 4° C., then washed and incubated with 200 μl of anti-IgG1 magnetic beads for 1 hour at 4° C., then washed and collected on column according to the manufacturer's instructions (Miltenyi Biotec). Reproducible high purity of Vδ1 T cells (>90%) was obtained with this protocol. Purified Vδ1 T cells (2.106 cells/ml) were stimulated with 2 μg/mL of PHA in the presence of syngeneic macrophages isolated using their adherence properties. […]

Vδ1 T cells [3] = assay: ELISA of IL-10, IL-8 and TGF-β in supernatants of expanded Vδ1 T cells
Excerpt: Phytohemagglutinin (PHA) was purchased from Thermofisher Scientific. The anti-human CD3 (UCHT1), and the anti-human TCR γδ and TCR Vδ1 antibodies were purchased from Beckman Coulter (Brea, Calif., USA). Anti-human CD3, CD73, CD39 and their isotypically matched control mouse antibodies were from BD Biosciences (San Jose, Calif., USA). The anti-human TCR γδ antibody used for IHC was from Santa Cruz Biotechnology (USA). Recombinant human IL-2 (rhIL-2) was from Novartis Pharma (Rueil-Malmaison, France), and recombinant IL-21 (rhIL-21) was from Miltenyi Biotec (Paris, France). ELISA kits for detecting human IL-10 and IL-8 were from BD Biosciences (San Jose, Calif., USA). ELISA kit for the detection of human TGFβ was from RD system.
Expanded Vδ1 T cells (2.106 cells/mL) were incubated in fresh medium without cytokines in wells coated or not with the anti-CD3 antibody (UCHT1) for 6 h, and then supernatants were collected. IL-8 and IL-10 protein levels were assessed using the relevant BD Biosciences Opteia Kits. The mean values of duplicate samples from the same experiment are shown for each data point with their standard error of the mean (SEM).

Compound | adenosine production by control and IL-21-amplified Vδ1 T cells (Vδ1 T cells [1]; in the presence of the CD73 inhibitor) | percentage of CD39-positive cells (Vδ1 T cells [2]; Vδ1 T cells from healthy donors expanded with rhIL-2+rhIL-21 vs rhIL-2 only (control)) | fraction of Vδ1 T cells expressing PD-L1 (Vδ1 T cells [2]; cells exposed to rhIL-21, about 50% in the control condition) [%] | fraction of CD39/CD73-positive Vδ1 T cells (Vδ1 T cells [2]; expanded with rhIL-2+rhIL-21, vs 18% in control cells) [%] | fraction of CD73-positive Vδ1 T cells (Vδ1 T cells [2]; expanded with rhIL-2+rhIL-21, vs 20% in the control condition (rhIL-2 only)) [%] | percentage of PD-L1+ in CD73-positive Vδ1 T cells (Vδ1 T cells [2]; exposure to rhIL-21 vs control, around 60%) | adenosine generated in the presence of AMP (Vδ1 T cells [1]; IL-21-amplified Vδ1 T cells, control cells (only rhIL-2) ~0.4 μM) [µM] | IL-10 production after TCR/CD3 activation (Vδ1 T cells [3]; IL-21-amplified CD73+ Vδ1 T cells, not in the CD73− cells) | IL-10 in supernatants, absence of activation (Vδ1 T cells [3]; IL-21-amplified Vδ1 T cells, CD73+ or CD73−, not detected in control cells) | IL-8 production (Vδ1 T cells [3]; activated IL-21-amplified CD73+ Vδ1 T cells only) | TGF-β secretion (Vδ1 T cells [3]; any of the tested conditions)
Nc1ncnc2c1ncn2[C@@H]1O[C@H](COP(=O)([O-])CP(=O)(O)O)[C@@H](O)[C@H]1O.[Na+] [APCP, adenosine 5′-(α,β-methylene)-diphosphate sodium salt, reference compound] | strongly impaired |  |  |  |  |  |  |  |  |  | 
rhIL-21: recombinant IL-21 (rhIL-21) from Miltenyi Biotec, cytokine added with rhIL-2 to expand Vδ1 T cells |  | did not modify | 65 | 40 | 50 | did not modify | ~1.4 | strongly increased | basal level | highly present | did not detect
